Test systems include SF-268; K562; HCT-116; IGROV-1; COLO 205; NCI-H23; HCT-15; MDA-MB-231; Hs-578T; NCI/ADR-RES; RXF 393; PC-3; SK-MEL-2; CCRF-CEM; MDA-MB-435; SR; OVCAR-8; HOP-92; A498; HL-60.
What all share (test): NCI anticancer screen, dose series, 48 h

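Five concentrations, 48 hours, 96-well plates. The concentration for 50% growth inhibition is given as GI50.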 Calls of active or inactive are those of the source. Rule as the data show it: active = GI50 up to about 1.1 µM and inactive = higher.

For `O=C1NCCCNCCCNCCCNC(=O)c2cccc1n2`, the GI50 in the assay with SF-268, in the assay on K562, with HCT-116, with IGROV-1, with COLO 205 and with NCI-H23 was > 100 µM (inactive) each time. Further, the GI50 in the assay on HCT-15 was above 100 µM; in the assay with MDA-MB-231, > 100 µM (inactive); with Hs-578T, > 100 µM (inactive); in the assay on NCI/ADR-RES, > 100 µM (inactive); with RXF 393, 18.1 µM (inactive); in the assay with PC-3, > 100 µM (inactive). Also, the GI50 in the assay with SK-MEL-2 was 63.2 µM (inactive); with CCRF-CEM, > 100 µM (inactive); in the assay with MDA-MB-435, > 100 µM (inactive); in the assay with SR, > 100 µM (inactive); in the assay with OVCAR-8, > 100 µM (inactive).

Turning to `CN(NC(=O)/C(=C/C=C/c1ccccc1)NC(=O)c1ccccc1)C1=C(Cl)C(=O)[N+](c2ccccc2)=CC1`, the GI50 is 29.6 µM (inactive) with SF-268; 19.9 µM (inactive) in the assay on K562; 20.1 µM (inactive) in the assay with HCT-116; 12.1 µM (inactive) in the assay with IGROV-1; 17.5 µM (inactive) in the assay on COLO 205; 35.4 µM (inactive) in the assay on NCI-H23. For the same molecule, the GI50 with HCT-15 is 24.2 µM; with HOP-92, 20.5 µM (inactive); in the assay on MDA-MB-231 it was 18.4 µM (inactive); in the assay on Hs-578T, 42.7 µM (inactive); in the assay on NCI/ADR-RES it was 20.7 µM (inactive); in the assay on RXF 393, 20.1 µM (inactive). Besides, the GI50 in the assay on PC-3 was 35.7 µM (inactive); in the assay with SK-MEL-2 it was 26.2 µM (inactive); with MDA-MB-435 it was 17 µM (inactive); with SR, 21.4 µM (inactive); in the assay with OVCAR-8, 21.1 µM (inactive); with A498, 39.4 µM (inactive).

For `COc1ccc(-c2cc(-c3ccccc3)nc(N)c2-c2ccc3ccccc3c2)cc1`, the GI50 with SF-268 is 3.3 µM (inactive); with K562 it was 2.94 µM (inactive); in the assay with HCT-116, 1.24 µM (inactive); in the assay on IGROV-1, 1.68 µM (inactive); in the assay with COLO 205, 1.68 µM (inactive); with NCI-H23, 1.86 µM (inactive). Also, the GI50 in the assay on HCT-15 was 1.54 µM; with HOP-92, 1.5 µM (inactive); in the assay with MDA-MB-231 it was 1.6 µM (inactive); in the assay on Hs-578T it was 1.65 µM (inactive); with NCI/ADR-RES, 1.98 µM (inactive); in the assay on RXF 393, 1.82 µM (inactive). Besides, the GI50 was 2.22 µM (inactive) in the assay on PC-3; 1.82 µM (inactive) in the assay with SK-MEL-2; 3.13 µM (inactive) in the assay with CCRF-CEM; 2.11 µM (inactive) with MDA-MB-435; 2.15 µM (inactive) in the assay with SR; 1.66 µM (inactive) in the assay with OVCAR-8. Moreover, the GI50 in the assay with A498 was 2.04 µM (inactive).

In the case of `COc1ccc(C(C#N)NC23CC4CC(CC(C4)C2)C3)cc1OC` (stereo not drawn), the GI50 in the assay with SF-268, in the assay on K562, with HCT-116, with IGROV-1, in the assay on COLO 205 and in the assay with HL-60 was > 100 µM (inactive) throughout. The GI50 is > 100 µM (inactive) in the assay on NCI-H23; above 100 µM with HCT-15; 96.8 µM (inactive) with HOP-92; > 100 µM (inactive) in the assay on MDA-MB-231; > 100 µM (inactive) in the assay with Hs-578T; > 100 µM (inactive) in the assay with NCI/ADR-RES. Also, the GI50 with RXF 393, with PC-3, with SK-MEL-2, in the assay with CCRF-CEM, in the assay with MDA-MB-435 and in the assay on SR was > 100 µM (inactive) throughout. The GI50 in the assay with OVCAR-8 is > 100 µM (inactive).

In the case of `COC1CC(OC2C(C)OC(OC3C(C)OC(OC4C(C)OC(O[C@H]5CC[C@@]6(C)C(=CC[C@]7(O)[C@@H]6C[C@@H](OC(=O)/C=C(\C)C(C)C)[C@@]6(C)[C@]7(O)CC[C@@]6(O)C(C)=O)C5)CC4OC)CC3OC)CC2OC)OC(C)C1O` (stereo partly drawn), the GI50 is > 12.5 µM (inactive) with SF-268; 10.9 µM (inactive) with K562; > 12.5 µM (inactive) in the assay with HCT-116; > 12.5 µM (inactive) in the assay on IGROV-1; > 12.5 µM (inactive) with COLO 205; 5.11 µM (inactive) in the assay with HL-60. The GI50 in the assay with NCI-H23 is > 12.5 µM (inactive); in the assay on HCT-15, above 12.5 µM; with HOP-92, > 12.5 µM (inactive); in the assay on MDA-MB-231 it was 11.9 µM (inactive); with Hs-578T it was > 12.5 µM (inactive); in the assay with NCI/ADR-RES, > 12.5 µM (inactive). The GI50 with PC-3, in the assay with SK-MEL-2, with CCRF-CEM, in the assay on MDA-MB-435, with SR and with OVCAR-8 was > 12.5 µM (inactive) each time.

On to `C=CCNC(=S)N/N=C1\C(=O)N(CN2CCOCC2)c2ccc([N+](=O)[O-])cc21`, for which the GI50 in the assay with SF-268 is 58.6 µM (inactive); with K562, 18.9 µM (inactive); in the assay on HCT-116, 6.46 µM (inactive); with IGROV-1, 6.21 µM (inactive); with COLO 205, 34.4 µM (inactive); in the assay with HL-60 it was 24.6 µM (inactive). In addition, the GI50 with NCI-H23 is 44.9 µM (inactive); in the assay on HCT-15 it was 5.04 µM; in the assay with HOP-92, 13.3 µM (inactive); in the assay with MDA-MB-231, 39.8 µM (inactive); in the assay on Hs-578T, > 100 µM (inactive); with NCI/ADR-RES, 3.74 µM (inactive). The GI50 in the assay with RXF 393 was > 100 µM (inactive); in the assay with PC-3, 24 µM (inactive); with SK-MEL-2 it was > 100 µM (inactive); with CCRF-CEM it was 2.7 µM (inactive); with MDA-MB-435 it was 55.1 µM (inactive); in the assay with OVCAR-8 it was 12.7 µM (inactive). For the same molecule, in the assay on A498, the GI50 is 7.52 µM (inactive).

Consider `c1ccc2sc(SCN(C3CCCCC3)C3CCCCC3)nc2c1`, for which the GI50 in the assay on SF-268 was > 100 µM (inactive); in the assay with K562, > 100 µM (inactive); with IGROV-1 it was > 100 µM (inactive); with NCI-H23 it was > 100 µM (inactive); with HCT-15, above 100 µM; with HOP-92, > 100 µM (inactive). In addition, the GI50 with MDA-MB-231, in the assay with Hs-578T, in the assay with NCI/ADR-RES, in the assay on RXF 393, in the assay on PC-3 and with SK-MEL-2 was > 100 µM (inactive) throughout. The GI50 with MDA-MB-435, with SR, with OVCAR-8 and in the assay on A498 was > 100 µM (inactive) in each case.

`COc1ccc(C2SCC(=O)N2NC2=NC(=O)CC(=O)N2)cc1` (stereo not drawn): the GI50 with SF-268, in the assay on K562, in the assay with HCT-116, in the assay with IGROV-1, with COLO 205 and with NCI-H23 was > 100 µM (inactive) each time. Also, the GI50 in the assay on HCT-15 was above 100 µM; with HOP-92 it was > 100 µM (inactive); with MDA-MB-231 it was > 100 µM (inactive); with Hs-578T it was > 100 µM (inactive); in the assay with NCI/ADR-RES it was > 100 µM (inactive); in the assay on RXF 393, > 100 µM (inactive). Also, the GI50 in the assay with PC-3, in the assay with SK-MEL-2, in the assay on CCRF-CEM, in the assay on MDA-MB-435, in the assay with SR and in the assay on OVCAR-8 was > 100 µM (inactive) in each case. The GI50 in the assay on A498 was > 100 µM (inactive).

For the molecule `C/C(=N\Nc1nc2ccccc2s1)c1cccnn1`, the GI50 in the assay with SF-268 was 1.56 µM (inactive); in the assay on K562, 3.23 µM (inactive); in the assay with HCT-116, 2.05 µM (inactive); in the assay on IGROV-1, 0.581 µM (active); in the assay with COLO 205, 2.48 µM (inactive); with NCI-H23, 2.61 µM (inactive). Besides, the GI50 in the assay on HCT-15 is 0.333 µM; with HOP-92, 2.32 µM (inactive); with MDA-MB-231, 2.28 µM (inactive); in the assay on Hs-578T it was 12.1 µM (inactive); in the assay on NCI/ADR-RES, 2.31 µM (inactive); with RXF 393, 17.1 µM (inactive). The GI50 is 1.79 µM (inactive) in the assay with PC-3; 3.05 µM (inactive) in the assay with SK-MEL-2; 0.381 µM (active) in the assay with CCRF-CEM; 4.26 µM (inactive) in the assay on MDA-MB-435; 0.476 µM (active) in the assay with SR; 1.66 µM (inactive) in the assay with OVCAR-8.

As to `CSc1cc(Cl)c(C)cc1S(=O)(=O)NC(=O)NNc1ccc(F)cc1`, the GI50 in the assay on SF-268 was > 100 µM (inactive); in the assay with K562, > 100 µM (inactive); in the assay on HCT-116, > 100 µM (inactive); in the assay on IGROV-1, > 100 µM (inactive); with COLO 205, > 100 µM (inactive); in the assay with HCT-15 it was above 100 µM. The GI50 in the assay on MDA-MB-231, in the assay with Hs-578T, with NCI/ADR-RES, with RXF 393, in the assay on PC-3 and in the assay on SK-MEL-2 was > 100 µM (inactive) throughout. Moreover, the GI50 in the assay on MDA-MB-435, with SR, in the assay on OVCAR-8 and with A498 was > 100 µM (inactive) each time.

Regarding `CCCCCc1cc2c(cc1O)CC[C@@H]1[C@@H]2CC[C@]2(C)[C@@H](O)CC[C@@H]12`, the GI50 with SF-268 was 17.7 µM (inactive); in the assay on K562, 16.7 µM (inactive); in the assay with HCT-116, 17.3 µM (inactive); with IGROV-1 it was 18.5 µM (inactive); in the assay with COLO 205, 16.1 µM (inactive); with HL-60, 21.3 µM (inactive). Moreover, the GI50 is 21.3 µM (inactive) in the assay with NCI-H23; 15.9 µM in the assay on HCT-15; 14.3 µM (inactive) with HOP-92; 18.4 µM (inactive) with MDA-MB-231; 19.8 µM (inactive) in the assay with Hs-578T; 18.9 µM (inactive) in the assay with NCI/ADR-RES. Besides, the GI50 in the assay with RXF 393 was 19.5 µM (inactive); in the assay on PC-3, 16.6 µM (inactive); with SK-MEL-2, 23.3 µM (inactive); in the assay on CCRF-CEM it was 35.3 µM (inactive); with MDA-MB-435, 15.7 µM (inactive); with OVCAR-8, 20.1 µM (inactive). Moreover, in the assay with A498, the GI50 was 21.4 µM (inactive).
